Results from patent publication US9611267B2, “Substituted tricyclic compounds as FGFR inhibitors” (Incyte Corporation, priority 2012, dated 2017).

Experiments:
Type in all cases: biochemical
[1] = molecular target: FGFR3 (Homo sapiens (Human), UniProt P22607); test: FGFR enzymatic assay (FRET peptide phosphorylation), FGFR3; details: FGFR3 enzyme (Millipore), ATP 140 μM
Summary of the method: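 FRET assay of peptide phosphorylation by FGFR3 in HEPES pH 7.5 buffer with MgCl2, EGTA, Tween-20 and DTT. Enzyme was pre-incubated 5-10 min with compound, and the reaction ran 1 hr at 25° C. IC50 came from a variable-slope sigmoidal fit.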

[2] = molecular target: FGFR1 (Homo sapiens (Human), UniProt P11362); test: FGFR enzymatic assay (FRET peptide phosphorylation), FGFR1; details: FGFR1 enzyme 0.02 nM, ATP 210 μM
FGFR1, sequence (P11362 22-822): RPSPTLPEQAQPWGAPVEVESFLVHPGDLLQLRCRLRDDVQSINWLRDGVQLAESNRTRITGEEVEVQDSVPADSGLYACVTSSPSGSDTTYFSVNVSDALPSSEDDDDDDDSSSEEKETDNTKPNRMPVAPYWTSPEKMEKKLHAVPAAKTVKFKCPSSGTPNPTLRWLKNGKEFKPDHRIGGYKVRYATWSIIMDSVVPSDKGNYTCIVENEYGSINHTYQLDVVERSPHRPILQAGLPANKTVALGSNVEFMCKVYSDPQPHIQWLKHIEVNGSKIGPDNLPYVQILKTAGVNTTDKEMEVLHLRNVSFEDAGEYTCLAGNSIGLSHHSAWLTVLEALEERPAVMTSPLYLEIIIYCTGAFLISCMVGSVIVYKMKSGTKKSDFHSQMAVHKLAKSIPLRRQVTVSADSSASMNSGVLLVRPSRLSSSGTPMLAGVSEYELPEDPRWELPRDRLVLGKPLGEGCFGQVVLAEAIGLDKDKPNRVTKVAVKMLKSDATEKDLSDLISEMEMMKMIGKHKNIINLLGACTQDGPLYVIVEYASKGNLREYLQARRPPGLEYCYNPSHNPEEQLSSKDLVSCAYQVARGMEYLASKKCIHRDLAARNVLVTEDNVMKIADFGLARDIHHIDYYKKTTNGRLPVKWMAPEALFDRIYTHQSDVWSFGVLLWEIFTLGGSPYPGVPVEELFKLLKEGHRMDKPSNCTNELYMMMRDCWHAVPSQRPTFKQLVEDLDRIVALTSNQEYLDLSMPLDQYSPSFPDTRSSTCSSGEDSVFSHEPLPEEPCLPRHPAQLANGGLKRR
Summary of the method: (§1)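 Recombinant kinase was pre-incubated 5–10 min with serially diluted inhibitor in HEPES buffer (10 mM MgCl2, 5 mM DTT, pH 7.5; buffer described for FGFR3). Peptide phosphorylation ran 1 h at 25 °C and was detected by FRET after ~1 h equilibration. IC50 values come from variable-slope sigmoidal fits.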

[3] = molecular target: FGFR2 (Homo sapiens (Human), UniProt P21802); test: FGFR enzymatic assay (FRET peptide phosphorylation), FGFR2; details: FGFR2 enzyme 0.01 nM, ATP 100 μM
FGFR2, sequence (P21802 22-821): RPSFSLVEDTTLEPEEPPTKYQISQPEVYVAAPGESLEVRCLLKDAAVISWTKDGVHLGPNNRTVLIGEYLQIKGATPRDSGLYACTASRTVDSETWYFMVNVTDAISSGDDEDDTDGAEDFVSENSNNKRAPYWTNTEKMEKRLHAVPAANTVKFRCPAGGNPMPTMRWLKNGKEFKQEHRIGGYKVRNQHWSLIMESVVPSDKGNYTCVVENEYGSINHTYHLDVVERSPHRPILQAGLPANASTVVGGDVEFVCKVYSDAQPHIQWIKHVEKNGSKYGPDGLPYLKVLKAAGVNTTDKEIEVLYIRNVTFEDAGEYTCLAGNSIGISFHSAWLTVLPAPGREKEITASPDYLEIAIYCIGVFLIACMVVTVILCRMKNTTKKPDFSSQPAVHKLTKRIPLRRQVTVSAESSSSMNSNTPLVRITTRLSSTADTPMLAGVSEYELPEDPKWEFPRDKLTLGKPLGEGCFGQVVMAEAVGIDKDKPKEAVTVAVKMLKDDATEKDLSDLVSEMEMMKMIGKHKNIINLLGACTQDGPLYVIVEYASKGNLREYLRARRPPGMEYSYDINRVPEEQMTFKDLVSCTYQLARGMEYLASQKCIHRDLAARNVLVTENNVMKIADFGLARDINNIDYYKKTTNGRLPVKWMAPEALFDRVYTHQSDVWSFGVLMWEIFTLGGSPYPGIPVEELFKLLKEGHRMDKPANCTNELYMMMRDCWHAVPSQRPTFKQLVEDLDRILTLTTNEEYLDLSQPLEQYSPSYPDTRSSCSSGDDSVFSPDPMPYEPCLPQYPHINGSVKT
Summary of the method: as §1

Measured: IC50

FGFR3, sequence (P22607 23-806): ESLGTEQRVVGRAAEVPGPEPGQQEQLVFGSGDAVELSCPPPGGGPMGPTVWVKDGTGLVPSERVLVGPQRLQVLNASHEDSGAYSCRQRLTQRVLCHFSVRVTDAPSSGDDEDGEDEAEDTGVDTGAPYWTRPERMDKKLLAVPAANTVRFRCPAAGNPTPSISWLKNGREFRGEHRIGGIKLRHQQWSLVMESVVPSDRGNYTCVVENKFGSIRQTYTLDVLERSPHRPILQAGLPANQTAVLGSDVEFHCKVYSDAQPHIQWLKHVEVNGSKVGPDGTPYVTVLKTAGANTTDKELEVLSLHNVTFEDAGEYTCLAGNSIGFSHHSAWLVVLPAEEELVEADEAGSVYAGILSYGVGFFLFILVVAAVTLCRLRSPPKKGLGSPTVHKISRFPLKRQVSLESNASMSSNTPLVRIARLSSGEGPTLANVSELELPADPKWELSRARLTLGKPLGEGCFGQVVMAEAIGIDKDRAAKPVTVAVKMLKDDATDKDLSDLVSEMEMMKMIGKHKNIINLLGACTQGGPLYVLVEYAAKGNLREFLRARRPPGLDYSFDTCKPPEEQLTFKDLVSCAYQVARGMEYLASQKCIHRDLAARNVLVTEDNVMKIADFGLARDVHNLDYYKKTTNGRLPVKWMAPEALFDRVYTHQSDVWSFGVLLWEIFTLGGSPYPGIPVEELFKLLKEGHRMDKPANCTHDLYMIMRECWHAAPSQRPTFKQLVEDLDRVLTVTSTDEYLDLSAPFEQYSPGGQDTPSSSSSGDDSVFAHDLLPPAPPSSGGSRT

CCn1cc(N2C(=O)N(c3c(F)c(OC)cc(OC)c3F)Cc3cnc4[nH]ncc4c32)cn1 [Example 172, 3-(2,6-difluoro-3,5-dimethoxyphenyl)-1-(1-ethyl-1H-pyrazol-4-yl)-1,3,4,7-tetrahydro-2H-pyrazolo[4′,3′:5,6]pyrido[4,3-d]pyrimidin-2-one]
< 0.1 µM: all assays above

COc1cc(OC)c(F)c(N2Cc3cnc4[nH]ncc4c3N(c3cnn(CC(C)(C)O)c3)C2=O)c1F [Example 173, 3-(2,6-difluoro-3,5-dimethoxyphenyl)-1-[1-(2-hydroxy-2-methylpropyl)-1H-pyrazol-4-yl]-1,3,4,7-tetrahydro-2H-pyrazolo[4′,3′:5,6]pyrido[4,3-d]pyrimidin-2-one]
< 0.1 µM: all assays above

COCCn1cc(N2C(=O)N(c3c(F)c(OC)cc(OC)c3F)Cc3cnc4[nH]ncc4c32)cn1 [Example 174, 3-(2,6-difluoro-3,5-dimethoxyphenyl)-1-[1-(2-methoxyethyl)-1H-pyrazol-4-yl]-1,3,4,7-tetrahydro-2H-pyrazolo[4′,3′:5,6]pyrido[4,3-d]pyrimidin-2-one]
< 0.1 µM: all assays above

COc1cc(OC)c(F)c(N2Cc3cnc4[nH]ncc4c3N(c3cnn(CC(F)F)c3)C2=O)c1F [Example 175, 3-(2,6-difluoro-3,5-dimethoxyphenyl)-1-[1-(2,2-difluoroethyl)-1H-pyrazol-4-yl]-1,3,4,7-tetrahydro-2H-pyrazolo[4′,3′:5,6]pyrido[4,3-d]pyrimidin-2-one]
< 0.1 µM: all assays above

COc1cccc(CN2C(=O)N(c3c(F)c(OC)cc(OC)c3F)Cc3cnc4[nH]ncc4c32)n1 [Example 176, 3-(2,6-difluoro-3,5-dimethoxyphenyl)-1-[(6-methoxypyridin-2-yl)methyl]-1,3,4,7-tetrahydro-2H-pyrazolo[4′,3′:5,6]pyrido[4,3-d]pyrimidin-2-one]
< 0.1 µM: all assays above

COc1cc(CN2C(=O)N(c3c(F)c(OC)cc(OC)c3F)Cc3cnc4[nH]ncc4c32)ccn1 [Example 177, 3-(2,6-difluoro-3,5-dimethoxyphenyl)-1-[(2-methoxypyridin-4-yl)methyl]-1,3,4,7-tetrahydro-2H-pyrazolo[4′,3′:5,6]pyrido[4,3-d]pyrimidin-2-one]
< 0.1 µM: all assays above

COc1cc(OC)c(F)c(N2Cc3cnc4[nH]ncc4c3N(C[C@H]3CCOC3)C2=O)c1F [Example 178, 3-(2,6-difluoro-3,5-dimethoxyphenyl)-1-[(3R)-tetrahydrofuran-3-ylmethyl]-1,3,4,7-tetrahydro-2H-pyrazolo[4′,3′:5,6]pyrido[4,3-d]pyrimidin-2-one]
< 0.1 µM: all assays above

COc1cc(OC)c(F)c(N2Cc3cnc4[nH]ncc4c3N(C[C@@H]3CCOC3)C2=O)c1F [Example 179, 3-(2,6-difluoro-3,5-dimethoxyphenyl)-1-[(3S)-tetrahydrofuran-3-ylmethyl]-1,3,4,7-tetrahydro-2H-pyrazolo[4′,3′:5,6]pyrido[4,3-d]pyrimidin-2-one]
< 0.1 µM: all assays above

COc1cc(OC)c(F)c(N2Cc3cnc4[nH]c(CN5CCOCC5)cc4c3N(c3ccccc3F)C2=O)c1F [Example 180, 3-(2,6-difluoro-3,5-dimethoxyphenyl)-1-(2-fluorophenyl)-8-(morpholin-4-ylmethyl)-1,3,4,7-tetrahydro-2H-pyrrolo[3′,2′:5,6]pyrido[4,3-d]pyrimidin-2-one]
< 0.1 µM: all assays above

CCN1CCN(Cc2cc3c4c(cnc3[nH]2)CN(c2c(F)c(OC)cc(OC)c2F)C(=O)N4c2ccccc2F)CC1 [Example 181, 3-(2,6-difluoro-3,5-dimethoxyphenyl)-8-[(4-ethylpiperazin-1-yl)methyl]-1-(2-fluorophenyl)-1,3,4,7-tetrahydro-2H-pyrrolo[3′,2′:5,6]pyrido[4,3-d]pyrimidin-2-one]
< 0.1 µM: all assays above

COc1cc(OC)c(F)c(N2Cc3cnc4[nH]c(CN5CCOCC5)cc4c3N(C3CCC3)C2=O)c1F [Example 182, 1-cyclobutyl-3-(2,6-difluoro-3,5-dimethoxyphenyl)-8-(morpholin-4-ylmethyl)-1,3,4,7-tetrahydro-2H-pyrrolo[3′,2′:5,6]pyrido[4,3-d]pyrimidin-2-one]
< 0.1 µM: all assays above

COc1cc(OC)c(F)c(N2Cc3cnc4[nH]c(CCN5CCOCC5)cc4c3N(C3CCC3)C2=O)c1F [Example 183, 1-cyclobutyl-3-(2,6-difluoro-3,5-dimethoxyphenyl)-8-(2-morpholin-4-ylethyl)-1,3,4,7-tetrahydro-2H-pyrrolo[3′,2′:5,6]pyrido[4,3-d]pyrimidin-2-one]
< 0.1 µM: all assays above

CCCN1C(=O)N(c2c(F)c(OC)cc(OC)c2F)Cc2cnc3[nH]c(CN4CCOCC4)cc3c21 [Example 184, 3-(2,6-difluoro-3,5-dimethoxyphenyl)-8-(morpholin-4-ylmethyl)-1-propyl-1,3,4,7-tetrahydro-2H-pyrrolo[3′,2′:5,6]pyrido[4,3-d]pyrimidin-2-one]
< 0.1 µM: all assays above

CCN1C(=O)N(c2c(F)c(OC)cc(OC)c2F)Cc2cnc3[nH]c(CCN4CCOCC4)cc3c21 [Example 185, 3-(2,6-difluoro-3,5-dimethoxyphenyl)-1-ethyl-8-(2-morpholin-4-ylethyl)-1,3,4,7-tetrahydro-2H-pyrrolo[3′,2′:5,6]pyrido[4,3-d]pyrimidin-2-one]
< 0.1 µM: all assays above

COc1cc(OC)c(F)c(N2Cc3cnc4[nH]c(CN5CCOCC5)cc4c3N(C3CC3)C2=O)c1F [Example 186, 1-cyclopropyl-3-(2,6-difluoro-3,5-dimethoxyphenyl)-8-(morpholin-4-ylmethyl)-1,3,4,7-tetrahydro-2H-pyrrolo[3′,2′:5,6]pyrido[4,3-d]pyrimidin-2-one]
< 0.1 µM: all assays above

COc1cc(OC)c(F)c(N2Cc3cnc4[nH]c(CN5CCN(C)CC5)cc4c3N(C3CC3)C2=O)c1F [Example 187, 1-cyclopropyl-3-(2,6-difluoro-3,5-dimethoxyphenyl)-8-[(4-methylpiperazin-1-yl)methyl]-1,3,4,7-tetrahydro-2H-pyrrolo[3′,2′:5,6]pyrido[4,3-d]pyrimidin-2-one]
< 0.1 µM: all assays above

CCN1CCN(Cc2cc3c4c(cnc3[nH]2)CN(c2c(F)c(OC)cc(OC)c2F)C(=O)N4C2CC2)CC1 [Example 188, 1-cyclopropyl-3-(2,6-difluoro-3,5-dimethoxyphenyl)-8-[(4-ethylpiperazin-1-yl)methyl]-1,3,4,7-tetrahydro-2H-pyrrolo[3′,2′:5,6]pyrido[4,3-d]pyrimidin-2-one]
< 0.1 µM: all assays above

COc1cc(OC)c(F)c(N2Cc3cnc4[nH]c(CN5CCOCC5)cc4c3N(c3ccc(F)cc3)C2=O)c1F [Example 189, 3-(2,6-difluoro-3,5-dimethoxyphenyl)-1-(4-fluorophenyl)-8-(morpholin-4-ylmethyl)-1,3,4,7-tetrahydro-2H-pyrrolo[3′,2′:5,6]pyrido[4,3-d]pyrimidin-2-one]
< 0.1 µM: all assays above

COc1cc(OC)c(F)c(N2Cc3cnc4[nH]c(CN5CCN(C)CC5)cc4c3N(c3ccc(F)cc3)C2=O)c1F [Example 190, 3-(2,6-difluoro-3,5-dimethoxyphenyl)-1-(4-fluorophenyl)-8-[(4-methylpiperazin-1-yl)methyl]-1,3,4,7-tetrahydro-2H-pyrrolo[3′,2′:5,6]pyrido[4,3-d]pyrimidin-2-one]
< 0.1 µM: all assays above

CCN1CCN(Cc2cc3c4c(cnc3[nH]2)CN(c2c(F)c(OC)cc(OC)c2F)C(=O)N4c2ccc(F)cc2)CC1 [Example 191, 3-(2,6-difluoro-3,5-dimethoxyphenyl)-1-(4-fluorophenyl)-8-[(4-ethylpiperazin-1-yl)methyl]-1,3,4,7-tetrahydro-2H-pyrrolo[3′,2′:5,6]pyrido[4,3-d]pyrimidin-2-one]
< 0.1 µM: all assays above

COc1cc(OC)c(F)c(N2Cc3cnc4[nH]c(CN5CCN(C)CC5)cc4c3N(c3cccc(F)c3F)C2=O)c1F [Example 192, 3-(2,6-difluoro-3,5-dimethoxyphenyl)-1-(2,3-difluorophenyl)-8-[(4-methylpiperazin-1-yl)methyl]-1,3,4,7-tetrahydro-2H-pyrrolo[3′,2′:5,6]pyrido[4,3-d]pyrimidin-2-one]
< 0.1 µM: all assays above
